Results: publication PMC4519791, “Functional diversity and properties of multiple xylanases from Penicillium oxalicum GZ-2” (Scientific Reports, 2015)

Tests used:
Format in all cases: biochemical
[1] = target: T1, xyn10A (Penicillium oxalicum, UniProt U3N115); assay: TLC of hydrolysis products; conditions: 1 mg/ml substrate, 12 h; 50 mM acetate pH 4.0, 40 °C (Figure 7 legend) or optimal pH, 45 °C (Methods)
T1 construct: mature enzyme, GH10 catalytic domain without CBM; pPICZalphaA alpha-factor secretion, 6xHis tag, Pichia pastoris, Ni-NTA
T1 sequence (U3N115 20-330): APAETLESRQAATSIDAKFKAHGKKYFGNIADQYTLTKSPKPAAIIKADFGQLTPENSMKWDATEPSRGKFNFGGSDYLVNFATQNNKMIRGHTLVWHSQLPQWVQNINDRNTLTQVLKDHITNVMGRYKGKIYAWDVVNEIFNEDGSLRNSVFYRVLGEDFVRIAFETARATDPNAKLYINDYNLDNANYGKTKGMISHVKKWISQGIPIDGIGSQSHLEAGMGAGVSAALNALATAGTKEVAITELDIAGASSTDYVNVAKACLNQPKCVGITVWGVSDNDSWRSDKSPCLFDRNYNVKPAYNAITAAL

[2] = target: T2, xyn11A (Penicillium oxalicum, UniProt U3MZH8); assay: TLC of hydrolysis products; conditions: 1 mg/ml substrate, 12 h; 50 mM acetate pH 4.0, 40 °C (Figure 7 legend) or optimal pH, 45 °C (Methods)
T2 construct: GH11 catalytic domain without CBM; 23 kDa by SDS-PAGE; pPICZalphaA alpha-factor secretion, 6xHis tag, Pichia pastoris, Ni-NTA
T2 sequence (U3MZH8 17-211): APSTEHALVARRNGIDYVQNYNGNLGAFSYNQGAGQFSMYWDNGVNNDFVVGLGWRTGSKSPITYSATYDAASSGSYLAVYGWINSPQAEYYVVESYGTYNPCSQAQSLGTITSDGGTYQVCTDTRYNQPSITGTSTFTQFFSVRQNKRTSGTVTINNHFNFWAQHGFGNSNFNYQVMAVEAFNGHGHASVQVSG

[3] = target: T3, xyn11B (Penicillium oxalicum, UniProt E7EF85); assay: TLC of hydrolysis products; conditions: 1 mg/ml substrate, 12 h; 50 mM acetate pH 4.0, 40 °C (Figure 7 legend) or optimal pH, 45 °C (Methods)
T3 construct: gene xynB; mature enzyme, GH11 catalytic domain, Ser/Thr linker and CBM1; pPICZalphaA alpha-factor secretion, 6xHis tag, Pichia pastoris, Ni-NTA
T3 sequence (E7EF85 20-310): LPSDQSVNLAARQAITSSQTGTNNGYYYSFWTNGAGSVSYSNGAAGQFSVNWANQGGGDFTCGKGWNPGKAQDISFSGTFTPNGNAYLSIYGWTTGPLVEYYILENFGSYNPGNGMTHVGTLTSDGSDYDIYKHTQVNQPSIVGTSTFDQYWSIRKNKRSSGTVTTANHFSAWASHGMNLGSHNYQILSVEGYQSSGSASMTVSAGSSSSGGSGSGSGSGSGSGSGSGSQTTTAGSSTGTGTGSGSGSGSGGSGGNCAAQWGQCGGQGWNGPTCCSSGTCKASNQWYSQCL

[4] = target: T4, xyn10B (Penicillium oxalicum, UniProt U3MZ77); assay: p-nitrophenyl substrate hydrolysis (specific activity); conditions: 10 mM substrate; optimal temperature, pH 5.0
T4 construct: mature enzyme, GH10 catalytic domain, Ser/Thr linker and CBM1; pPICZalphaA alpha-factor secretion, 6xHis tag, Pichia pastoris, Ni-NTA
T4 sequence (U3MZ77 23-410): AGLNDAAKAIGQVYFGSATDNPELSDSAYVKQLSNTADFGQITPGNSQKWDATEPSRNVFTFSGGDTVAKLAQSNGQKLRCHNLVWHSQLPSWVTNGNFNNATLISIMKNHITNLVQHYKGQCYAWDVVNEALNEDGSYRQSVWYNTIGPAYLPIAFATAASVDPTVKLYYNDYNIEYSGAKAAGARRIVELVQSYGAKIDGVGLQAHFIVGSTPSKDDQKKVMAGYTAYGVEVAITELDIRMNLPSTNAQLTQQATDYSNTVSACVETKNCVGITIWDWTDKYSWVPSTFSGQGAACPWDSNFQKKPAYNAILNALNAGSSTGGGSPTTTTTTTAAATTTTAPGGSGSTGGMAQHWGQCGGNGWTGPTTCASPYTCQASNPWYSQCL

Row | Structure (SMILES) | TLC of hydrolysis products [1] | TLC of hydrolysis products [2] | TLC of hydrolysis products [3] | p-nitrophenyl substrate hydrolysis (specific activity) [4]
1 | OC1OC[C@@H](O[C@@H]2OC[C@@H](O[C@@H]3OC[C@@H](O)[C@H](O)[C@H]3O)[C@H](O)[C@H]2O)[C@H](O)[C@H]1O (some centres unmarked) [X3, xylotriose] | the two GH10 enzymes rapidly degraded X3, X4, X5 and X6 |  |  | 
2 | OC1OC[C@@H](O[C@@H]2OC[C@@H](O[C@@H]3OC[C@@H](O[C@@H]4OC[C@@H](O)[C@H](O)[C@H]4O)[C@H](O)[C@H]3O)[C@H](O)[C@H]2O)[C@H](O)[C@H]1O (some centres unmarked) [X4, xylotetraose] |  | X4, X5 and X6 were hydrolyzed to X2 and X3 through xyn11A | hydrolytic products obtained with GH11 xylanase (xyn11B) was similar to that of xyn11A | 
3 | OC1CO[C@@H](OC2CO[C@@H](OC3CO[C@@H](OC4CO[C@@H](OC5CO[C@@H](OC6COC(O)C(O)C6O)C(O)C5O)C(O)C4O)C(O)C3O)C(O)C2O)C(O)C1O (some centres unmarked) [X6, xylohexaose] | the two GH10 enzymes rapidly degraded X3, X4, X5 and X6 | X4, X5 and X6 were hydrolyzed to X2 and X3 through xyn11A | hydrolytic products obtained with GH11 xylanase (xyn11B) was similar to that of xyn11A | 
4 | O=[N+]([O-])c1ccc(O[C@@H]2OC[C@@H](O)[C@H](O)[C@H]2O)cc1 [pNPX, p-nitrophenyl-β-D-xylopyranoside] |  |  |  | Although xyn10B degraded pNPX and pNPC, the other three enzymes were not active
5 | O=[N+]([O-])c1ccc(O[C@@H]2O[C@H](CO)[C@@H](O[C@@H]3O[C@H](CO)[C@@H](O)[C@H](O)[C@H]3O)[C@H](O)[C@H]2O)cc1 [pNPC, p-nitrophenyl β-D-cellobioside] |  |  |  | Although xyn10B degraded pNPX and pNPC, the other three enzymes were not active
